Laboratory results as given in patent publication US7223759B2, “Antibacterial 3,5-diaminopiperidine-substituted aromatic and heteroaromatic compounds” (Anadys Pharmaceuticals, Inc., priority 2003, dated 2007).
Like-named read-outs stand apart in the source and are kept apart here.

Tested on: Escherichia coli (ATCC25922) or Staphylococcus aureus (ATCC25923)
Test: Antibacterial MIC, microdilution method in Mueller-Hinton medium
Type: cell-based
Settings: Escherichia coli, 18 h, read-out: Potency (MIC)
Procedure, shortened: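 Two-fold serial dilutions from 64 to 0.5 μg/ml, in duplicate, by broth microdilution in Mueller-Hinton medium (NCCLS M7-A5). MIC taken as the lowest concentration preventing visible growth after 18 h at 35° C.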

[1] = MIC in E. coli or S. aureus, two-fold serial dilutions 64 to 0.5 μg/ml in duplicate, 18 hours of incubation at 35° C.

| MIC [1] [µg/mL] | Structure (SMILES) | MIC [µg/mL] |
| --- | --- | --- |
|  | COc1ccc(O)c(C(=O)Nc2ccc(Nc3nc(N4C[C@H](N)C[C@H](N)C4)nc(N4C[C@H](N)C[C@H](N)C4)n3)cc2O)c1 [N-[3-hydroxy-4-(2-hydroxy-5-methoxy-benzoylamino)-phenyl]-4,6-Bis-((3R,5S)-3,5-diamino-piperidin-1-yl)-[1,3,5]triazine-2-amine] | < 16 |
|  | N[C@@H]1C[C@H](N)CN(c2nc(Nc3ccc(NC(=O)c4cc(OC(F)(F)F)ccc4O)c(O)c3)nc(N3C[C@H](N)C[C@H](N)C3)n2)C1 [N-[3-hydroxy-4-(2-hydroxy-5-trifluoromethoxy-benzoylamino)-phenyl]-4,6-Bis-((3R,5S)-3,5-diamino-piperidin-1-yl)-[1,3,5]triazine-2-amine] | < 16 |
|  | COc1ccccc1C(=O)Nc1ccc(Nc2nc(N3C[C@H](N)C[C@H](N)C3)nc(N3C[C@H](N)C[C@H](N)C3)n2)cc1O [N-[3-hydroxy-4-(2-methoxy-benzoylamino)-phenyl]-4,6-Bis-((3R,5S)-3,5-diamino-piperidin-1-yl)-[1,3,5]triazine-2-amine] | < 16 |
| > 64 | COCCNC(=O)c1ccc(Nc2nc(N3C[C@H](N)C[C@H](N)C3)nc(N3C[C@H](N)C[C@H](N)C3)n2)cc1O [N-[3-hydroxy-4-(2-methoxy-ethylcarbamoyl)-phenyl]-4,6-Bis-((3R,5S)-3,5-diamino-piperidin-1-yl)-[1,3,5]triazine-2-amine] |  |
| < 64 | COc1cc(NC(=O)c2ccc(Nc3nc(N4CCCCC4)nc(N4CCCCC4)n3)cc2O)cc(OC)c1OC.Cl [N-[3-hydroxy-4-(3,4,5-trimethoxy-phenylcarbamoyl)-phenyl]-4,,6-Bis-((3R,5S)-33,5-diamino-piperidin-1-yl)-[1,3,5]triazine-2-amine] |  |
|  | N[C@@H]1C[C@H](N)CN(c2nc(Nc3ccc(C(=O)Nc4cccc(CO)c4)c(O)c3)nc(N3C[C@H](N)C[C@H](N)C3)n2)C1 [N-[3-hydroxy-4-(3-hydroxymethyl-phenylcarbamoyl)-phenyl]-4,6-Bis-((3R,5S)-3,5-diamino-piperidin-1-yl)-[1,3,5]triazine-2-amine] | < 64 |
|  | COc1cccc(S(=O)(=O)Nc2ccc(Nc3nc(N4C[C@H](N)C[C@H](N)C4)nc(N4C[C@H](N)C[C@H](N)C4)n3)cc2O)c1 [N-[3-hydroxy-4-(3-methoxy-benzenesulfonylamino)-phenyl]-4,6-Bis-((3R,5S)-3,5-diamino-piperidin-1-yl)-[1,3,5]triazine-2-amine] | < 64 |
| < 64 | CC(C)CC(=O)Nc1ccc(Nc2nc(N3CCCCC3)nc(N3CCCCC3)n2)cc1O.Cl [N-[3-hydroxy-4-(3-methyl-butyrylamino)-phenylk]-4,6-Bis-((3R,5S)-3,5-diamino-piperidin-1-yl)-[1,3,5]triazine-2-amine] |  |
|  | N[C@@H]1C[C@H](N)CN(c2nc(Nc3ccc(C(=O)N4CCNC(=O)C4)c(O)c3)nc(N3C[C@H](N)C[C@H](N)C3)n2)C1 [N-[3-hydroxy-4-(3-oxo-piperazine-1-carbonyl)-phenyl]-4,6-Bis-((3R,5S)-3,5-diamino-piperidin-1-yl)-[1,3,5]triazine-2-amine] | > 64 |
|  | N[C@@H]1C[C@H](N)CN(c2nc(Nc3ccc(NC(=O)C=Cc4ccccc4)c(O)c3)nc(N3C[C@H](N)C[C@H](N)C3)n2)C1 [N-[3-hydroxy-4-(3-phenyl-acryloylamino)-phenyl]-4,6-Bis-((3R,5S)-3,5-diamino-piperidin-1-yl)-[1,3,5]triazine-2-amine] | < 16 |
|  | N[C@@H]1C[C@H](N)CN(c2nc(Nc3ccc(C(=O)Nc4cccc(OC(F)(F)F)c4)c(O)c3)nc(N3C[C@H](N)C[C@H](N)C3)n2)C1 [N-[3-hydroxy-4-(3-trifluoromethoxy-phenylcarbamoyl)-phenyl]-4,6-Bis-((3R,5S)-3,5-diamino-piperidin-1-yl)-[1,3,5]triazine-2-amine] | < 16 |
|  | N[C@@H]1C[C@H](N)CN(c2nc(Nc3ccc(C(=O)Nc4cccc(C(F)(F)F)c4)c(O)c3)nc(N3C[C@H](N)C[C@H](N)C3)n2)C1 [N-[3-hydroxy-4-(3-trifluoromethyl-phenylcarbamoyl)-phenyl]-4,6-Bis-((3R,5S)-3,5-diamino-piperidin-1-yl)-[1,3,5]triazine-2-amine] | < 16 |
|  | N[C@@H]1C[C@H](N)CN(c2nc(Nc3ccc(C(=O)Nc4cccc(SC(F)(F)F)c4)c(O)c3)nc(N3C[C@H](N)C[C@H](N)C3)n2)C1 [N-[3-hydroxy-4-(3-trifluoromethylsulfanyl-phenylcarbamoyl)-phenyl]-4,6-Bis-((3R,5S)-3,5-diamino-piperidin-1-yl)-[1,3,5]triazine-2-amine] | < 16 |
| < 16 | Cl.O=C(Nc1ccc(O)cc1)c1ccc(Nc2nc(N3CCCCC3)nc(N3CCCCC3)n2)cc1O [N-[3-hydroxy-4-(4-hydroxy-phenylcarbamoyl)-phenyl]-4,6-Bis((3R,5S)-3,5-0diamino-piperidin-1-yl)-[1,3,5]triazine-2-amine] |  |
|  | COc1ccc(C(=O)Nc2ccc(Nc3nc(N4C[C@H](N)C[C@H](N)C4)nc(N4C[C@H](N)C[C@H](N)C4)n3)cc2O)cc1 [N-[3-hydroxy-4-(4-methoxy-benzoylamino)-phenyl]-4,6-Bis-((3R,5S)-3,5-diamino-piperidin-1-yl)-[1,3,5]triazine-2-amine] | < 16 |
|  | COc1ccc(NC(=O)c2ccc(Nc3nc(N4C[C@H](N)C[C@H](N)C4)nc(N4C[C@H](N)C[C@H](N)C4)n3)cc2O)cc1 [N-[3-hydroxy-4-(4-methoxy-phenylcarbamoyl)-phenyl]-4,6-Bis-((3R,5S)-3,5-diamino-piperidin-1-yl)-[1,3,5]triazine-2-amine] | < 64 |
|  | Cc1cc(=O)oc2cc(NC(=O)c3ccc(Nc4nc(N5C[C@H](N)C[C@H](N)C5)nc(N5C[C@H](N)C[C@H](N)C5)n4)cc3O)ccc12 [N-[3-hydroxy-4-(4-methyl-2-oxo-2H-chromen-7-ylcarbamoyl)-phenyl]-4,6-Bis-((3R,5S)-3,5-diamino-piperidin-1-yl)-[1,3,5]triazine-2-amine] | < 16 |
|  | Cc1ccc(C(=O)Nc2ccc(Nc3nc(N4C[C@H](N)C[C@H](N)C4)nc(N4C[C@H](N)C[C@H](N)C4)n3)cc2O)cc1 [N-[3-hydroxy-4-(4-methyl-benzoylamino)-phenyl]-4,6-Bis-((3R,5S)-3,5-diamino-piperidin-1-yl)-[1,3,5]triazine-2-amine] | < 16 |
|  | CCCCC(=O)Nc1ccc(S(=O)(=O)Nc2ccc(Nc3nc(N4C[C@H](N)C[C@H](N)C4)nc(N4C[C@H](N)C[C@H](N)C4)n3)cc2O)cc1 [N-[3-hydroxy-4-(4-pentanoylamino-benzenesulfonylamino)-phenyl]-4,6-Bis-((3R,5S)-3,5-diamino-piperidin-1-yl)-[1,3,5]triazine-2-amine] | < 64 |
|  | N[C@@H]1C[C@H](N)CN(c2nc(Nc3ccc(C(=O)Nc4ccc(SC(F)(F)F)cc4)c(O)c3)nc(N3C[C@H](N)C[C@H](N)C3)n2)C1 [N-[3-hydroxy-4-(4-trifluoromethylsulfanyl-phenylcarbamoyl)-phenyl]-4,6-Bis-((3R,5S)-3,5-diamino-piperidin-1-yl)-[1,3,5]triazine-2-amine] | < 64 |
| < 64 | Cc1cccc(NC(=O)c2ccc(Nc3nc(N4CCCCC4)nc(N4CCCCC4)n3)cc2O)n1.Cl [N-[3-hydroxy-4-(6-methyl-pyridin-2-ylcarbamoyl)-phenyl]-4,6-Bis-((3R,5S)-3,5-diamino-piperidin-1-yl)-[1,3,5]triaazine-2-amine] |  |
|  | CC(C)CCCCCC(=O)Nc1ccc(Nc2nc(N3C[C@H](N)C[C@H](N)C3)nc(N3C[C@H](N)C[C@H](N)C3)n2)cc1O [N-[3-hydroxy-4-(7-methyl-octanoylamino)-phenyl]-4,6-Bis-((3R,5S)-3,5-diamino-piperidin-1-yl)-[1,3,5]triazine-2-amine] | < 16 |
|  | N[C@@H]1C[C@H](N)CN(c2nc(Nc3ccc(C(=O)N4CCOCC4)c(O)c3)nc(N3C[C@H](N)C[C@H](N)C3)n2)C1 [N-[3-hydroxy-4-(morpholine-4-carbonyl)-phenyl]-4,6-Bis-((3R,5S)-3,5-diamino-piperidin-1-yl)-[1,3,5]triazine-2-amine] | > 64 |
| > 64 | Cl.NS(=O)(=O)c1ccc(NC(=O)c2ccc(Nc3nc(N4CCCCC4)nc(N4CCCCC4)n3)cc2O)cc1 [N-[3-hydroxy-4-{4-sulfamoyl-phenylcarbamoyl)-phenyl]-4,6-Bis-((3R,5S)-3,5-diamino-piperidin-1-yl)-[1,3,5]triazine-22-amine] |  |
| < 64 | Cc1cc(C)c(S(=O)(=O)Nc2ccc(Nc3nc(N4CCCCC4)nc(N4CCCCC4)n3)cc2O)c(C)c1.Cl [N-[3-hydroxy-(2,4,6-trimethyl-benzenesulfonylamino)-phenyl]-4,6-Bis-((3R,5S)-3,5-diamino-pperidin-1-yl)-[1,3,5]triazine-2-amine] |  |
| > 64 | Cl.O=S(=O)(c1cc(Nc2nc(N3CCCCC3)nc(N3CCCCC3)n2)ccc1N1CCOCC1)N1CCOCC1 [N-[3-morpholine-4-sulfonyl)-4-morpholin-4-yl-phenyl]-4,6-Bis-((3R,5S)-3,5-diamino-piperidin-1-yl)-[1,3,5]triazine-2-amine] |  |
|  | N[C@@H]1C[C@H](N)CN(c2nc(Nc3ccc(C(=O)Nc4ccc5[nH]cnc5c4)c(O)c3)nc(N3C[C@H](N)C[C@H](N)C3)n2)C1 [N-[4-(1H-benzoimidazol-5-ylcarbamoyl)-3-hydroxy-phenyl]-4,6-Bis-((3R,5S)-3,5-diamino-piperidin-1-yl)-[1,3,5]triazine-2-amine] | < 16 |
| > 64 | N[C@@H]1C[C@H](N)CN(c2nc(Nc3ccc(S(=O)(=O)Nc4ccc5cn[nH]c5c4)cc3)nc(N3C[C@H](N)C[C@H](N)C3)n2)C1 [N-[4-(1H-indazol-6-ylsulfamoyl)-phenyl]-4,6-Bis-((3R,5S)-3,5-diamino-piperidin-1-yl)-[1,3,5]triazine-2-amine] |  |
| > 64 | N[C@@H]1C[C@H](N)CN(c2nc(Nc3ccc(NC(=O)C(F)(F)F)cc3)nc(N3C[C@H](N)C[C@H](N)C3)n2)C1 [N-[4-(2,2,2-trifluoro-acetylamino)-phenyl]-4,6-Bis-((3R,5S)-3,5-diamino-piperidin-1-yl)-[1,3,5]triazine-2-amine] |  |
